Columns and labels:
Type in all cases: cell-based
C. neo = test: standardized in vitro susceptibility test, C. neo; conditions: yes/no
Candida w/ FLu. = test: standardized in vitro susceptibility test, Candida w/ FLu.; conditions: with FLu.; yes/no
Asp = test: standardized in vitro susceptibility test, Asp alone (MEC)
Asp/Caspo = test: standardized in vitro susceptibility test, Asp/Caspo; conditions: with Caspo

`CO[C@H]1C[C@@H](C)C/C(C)=C/[C@@H](C/C=C/c2ccc(C(=O)O)cc2)C(=O)C[C@H](O)[C@@H](C)[C@@H](/C(C)=C/[C@@H]2CC[C@@H](O)[C@H](OC)C2)OC(=O)[C@@H]2CCCCN2C(=O)C(=O)[C@]2(O)O[C@H]1[C@@H](OC)C[C@H]2C` [Compound 2] was tested, and the “Active C. neo” value (C. neo) was “yes”, the “Active Candida w/ FLu.” value (Candida w/ FLu.) was “no” and the “Active Asp alone (MEC)” value (Asp; yes/no) was “yes”. The “Active Asp Caspo” value (Asp/Caspo; yes/no) was “Yes”.
With `CCCC/C=C/C[C@@H]1/C=C(\C)C[C@H](C)C[C@H](OC)[C@H]2O[C@@](O)(C(=O)C(=O)N3CCCC[C@H]3C(=O)O[C@H](/C(C)=C/[C@@H]3CC[C@@H](O)[C@H](OC)C3)[C@H](C)[C@@H](O)CC1=O)[C@H](C)C[C@@H]2OC` [Compound 3] the “Active C. neo” value (C. neo) was “yes”, the “Active Candida w/ FLu.” value (Candida w/ FLu.) was “yes” and the “Active Asp alone (MEC)” value (Asp; yes/no) was “no”. The “Active Asp Caspo” value (Asp/Caspo; concentration) was 4 µg/mL and the “Active Asp Caspo” value (Asp/Caspo; yes/no) was “yes”.
For `CCC(C)C/C=C/C[C@@H]1/C=C(\C)C[C@H](C)C[C@H](OC)[C@H]2O[C@@](O)(C(=O)C(=O)N3CCCC[C@H]3C(=O)O[C@H](/C(C)=C/[C@@H]3CC[C@@H](O)[C@H](OC)C3)[C@H](C)[C@@H](O)CC1=O)[C@H](C)C[C@@H]2OC` (some centres unmarked) [Compound 4], the “Active C. neo” value (C. neo) was “yes”, the “Active Candida w/ FLu.” value (Candida w/ FLu.) was “yes” and the “Active Asp alone (MEC)” value (Asp; yes/no) was “no”. For the same molecule, the “Active Asp Caspo” value (Asp/Caspo; concentration) was 8 µg/mL and the “Active Asp Caspo” value (Asp/Caspo; yes/no) was “yes”.
For `CO[C@H]1C[C@@H](C)C/C(C)=C/[C@@H](C/C=C/CC(=O)O)C(=O)C[C@H](O)[C@@H](C)[C@@H](/C(C)=C/[C@@H]2CC[C@@H](O)[C@H](OC)C2)OC(=O)[C@@H]2CCCCN2C(=O)C(=O)[C@]2(O)O[C@H]1[C@@H](OC)C[C@H]2C` [Compound 5], the “Active C. neo” value (C. neo) was “yes”, the “Active Candida w/ FLu.” value (Candida w/ FLu.) was “yes” and the “Active Asp alone (MEC)” value (Asp; MEC concentration) was “(8 ug/mL)”. The “Active Asp alone (MEC)” value (Asp; yes/no) was “yes”, the “Active Asp Caspo” value (Asp/Caspo; concentration) was 1 µg/mL and the “Active Asp Caspo” value (Asp/Caspo; yes/no) was “yes”.

From patent US11000514B2, “Antifungal compounds” (Duke University, priority 2014, dated 2021)
